Assay results published in US20260240869A1, “ANTIPSEUDOMONAL FUSIDIC ACID COMPOUNDS” (priority 2022, published 2026).
Converted amounts (≈) assume the structure as drawn. Read-outs that look alike come from different tables or passages of the source.

Tests used:
[1] = system: P. aeruginosa PA14; assay: MIC, P. aeruginosa PA14; type: cell-based, Pseudomonas aeruginosa; details: for MIC: Pseudomonas aeruginosa
Protocol: (§1) Antimicrobial Susceptibility Tests. Susceptibility testing was performed in biological triplicate, using the microdilution broth method as outlined by the Clinical and Laboratory Standards Institute. Bacteria were cultured with cation-adjusted Meuller-Hinton broth (Sigma-Aldrich; catalogue number: 90922) or Luria-Bertani (LB) broth (Lennox) in round-bottom 96-well plates (Corning; catalogue number: 3788).

[2] = system: P. aeruginosa PAO1; assay: MIC, CLSI broth microdilution, P. aeruginosa PAO1; type: cell-based, Pseudomonas aeruginosa; details: for MIC: Pseudomonas aeruginosa
Protocol: as §1

[3] = system: WT EC; details: retrospective literature analysis (Table 6); cited from earlier work
[4] = system: P. aeruginosa PAΔ6; assay: MIC, efflux pump knockout strain PAΔ6; type: cell-based, Pseudomonas aeruginosa
Protocol: as §1

[5] = system: P. aeruginosa PA1280; assay: MIC, P. aeruginosa PA1280; type: cell-based, Pseudomonas aeruginosa; details: for MIC: Pseudomonas aeruginosa
Protocol: as §1

[6] = system: PA efflux KO; details: retrospective literature analysis (Table 6); cited from earlier work
[7] = system: P. aeruginosa PAO1; assay: LC-MS/MS whole-cell accumulation assay, P. aeruginosa PAO1; type: cell-based, Pseudomonas aeruginosa
Protocol: (§2) Accumulation Assay. The accumulation assay was performed in triplicate in batches of ten samples, with each batch containing tetracycline or ciprofloxacin as a positive control. P. aeruginosa PAO1, PAO1 A6, PA14, PA14 A40, and PA1280, and E. coli MG1655 were used in these experiments. For each replicate, 2.5 mL (E. coli) or 5 mL (P. aeruginosa) of an overnight culture was diluted into 250 mL of fresh Luria-Bertani broth (Lennox) or Tryptic Soy Broth (TSB) and grown at 37° C. with shaking to an optical density (OD600) of 0.55-0.60. The bacteria were pelleted at 3220 r.c.f. for 10 min at 4° C., and the supernatant was discarded. The pellets were resuspended in 40 mL of phosphate buffered saline (PBS) and pelleted as before, and the supernatant was discarded. The pellets were resuspended in 8.8 mL of fresh PBS and aliquoted into ten, 1.5 mL Eppendorf tubes (875 μL each). The number of colony-forming units (CFUs) was determined by a calibration curve. The samples were equilibrated at 37° C. with shaking for 5 min; compound was added (final concentration=50 μM), and then the samples were incubated at 37° C. with shaking for either 10 min. These time points were short enough to minimize metabolic and growth changes (no changes in OD600 or CFU count observed). After incubation, 800 μL of the cultures was carefully layered on 700 μL of silicone oil (9:1 AR20/Sigma High Temperature, cooled to −78° C.). Bacteria were pelleted through the oil by centrifuging at 13 000 r.c.f. for 2 min at room temperature (with the supernatant remaining above the oil); the supernatant and oil were then removed by pipetting. To lyse the samples, each pellet was dissolved in […] of water, and then, they were subjected to three (E. coli) or four (P. aeruginosa) freeze-thaw cycles of 3 min in liquid nitrogen followed by 3 min in a water bath at 65° C. P. aeruginosa samples were then treated with 50 µM DNase and RNase and incubated at 37° C. for 15 minutes. The lysates were pelleted at 13 000 r.c.f. for 2 min at room temperature, and the supernatant was collected ([…]). The debris was resuspended in 100 μL of methanol and pelleted as before. The supernatants were removed and combined with the previous supernatants collected. Finally, the remaining debris was removed by centrifuging at 20 000 r.c.f. for 10 min at room temperature. Supernatants were analyzed by LC-MS/MS.
(§3) Samples were analyzed with the 5500 QTRAP LC/MS/MS system (AB Sciex) with a 1200 series HPLC system (Agilent Technologies) including a degasser, an autosampler, and a binary pump. Liquid chromatography separation was performed on an Agilent SB-Aq column (4.6×50 mm, 5 μm) (Agilent Technologies) with mobile phase A (0.1% formic acid in water) and mobile phase B (0.1% formic acid in acetonitrile). The flow rate was 0.3 mL/min. The linear gradient was as follows: 0-3 min, 100% mobile phase A; 10-15 min, 2% mobile phase A; 15.5-21 min, 100% mobile phase A. The autosampler was set at 5° C. The injection volume was 15 μL. Mass spectra were acquired with both positive electrospray ionization at the ion spray voltage of 5500 V and negative electrospray ionization at the ion spray voltage of −4500 V. The source temperature was 450° C. The curtain gas, ion source gas 1, and ion source gas 2 were 33, 50, and 65, respectively. Multiple reaction monitoring was used to quantify the metabolites. Power analysis was not used to determine the number of replicates. Error bars represent the standard error of the mean of three biological replicates. The statistical significance of the accumulation was determined using a two sample Welch's t test (one-tailed test, assuming unequal variance) relative to the negative controls. All compounds evaluated in the biological assays were >95% pure.
MBN assay. Assays measuring permeabilization by polymyxin B nonapeptide (PMBN) were performed as above, with the addition of 8 μg/mL PMBN immediately before the compound of interest was added.

[8] = system: tolC EC; details: retrospective literature analysis (Table 6); cited from earlier work
[9] = system: WT PA; details: retrospective literature analysis (Table 6); cited from earlier work
[10] = system: P. aeruginosa PAΔ6; assay: LC-MS/MS whole-cell accumulation assay, PAΔ6; type: cell-based, Pseudomonas aeruginosa; details: FIG. 1c
Protocol: as §2, §3

[11] = system: E. coli MG1655; assay: MIC, E. coli MG1655; type: cell-based; details: Escherichia coli, MG1655; Table 9; read-out: MIC E. coli MG1655
Protocol: as §1

[12] = system: S. aureus ATCC 29213; assay: MIC, S. aureus ATCC 29213; type: cell-based; details: Staphylococcus aureus, ATCC29213; Table 9; read-out: MIC S. aureus ATCC 29213
Protocol: as §1

[13] = system: P. aeruginosa PAO1; assay: NPN outer membrane permeability assay; type: cell-based, Pseudomonas aeruginosa; details: treatment for ten minutes
Description: Further, the fluorescent probe N-phenylnapthylamine (NPN) was used to assess outer membrane permeability changes upon treatment with FA, gentamicin, and FA prodrug. NPN is membrane impermeable and is only weakly fluorescent in aqueous solutions. Upon entry to the cell and interacting with phospholipids, significant fluorescence is observed. […] This residual membrane depolarizing antibacterial activity can be observed in the FA polyamine (FIG. 4a) and the diacylated compound (Table 9).

[14] = PA14, MH broth (Table 4), read-out: PA14 MIC
[15] = WT P. aeruginosa PAO1, MH broth (Table 1), read-out: PAO1 MIC
[16] = PA1280, MH broth (Table 4), read-out: PA1280 MIC

## CN(C)[C@@H]1C(=O)C(C(N)=O)=C(O)[C@@]2(O)C(=O)C3=C(O)c4c(O)cccc4[C@@](C)(O)[C@H]3C[C@@H]12 [Tetracycline]
[1]; MH broth (Table 4)
  PA14 MIC: 8 µg/mL
[2]; MH broth (Table 4)
  PAO1 MIC: 16 µg/mL
[2]; WT P. aeruginosa PAO1, MH broth (Table 1)
  PAO1 MIC: 16 µg/mL
[2]; WT P. aeruginosa PAO1, MH or LB broth (Table 7)
  WT MIC: 16 µg/mL
[3]
  WT EC MIC: 1 µg/mL
[4]; MH or LB broth (Table 7)
  PAΔ6 MIC: 0.25 µg/mL
[4]; WT MIC / PAΔ6 MIC (Table 7)
  Fold change (MIC): 64
[5]; MH broth (Table 4)
  PA1280 MIC: 32 µg/mL
[6]
  PA efflux KO MIC: 0.25 µg/mL
[7]; WT PAO1, ± s.e.m. (Table 7)
  WT Accum: 452 ± 5 nmol/10^12 CFUs
[8]
  tolC EC MIC: 0.25 µg/mL
[9]
  WT PA MIC: 16 µg/mL

## C[C@@H](O)[C@H]1C(=O)N2C(C(=O)O)=C(S[C@@H]3CN[C@H](C(=O)N(C)C)C3)[C@H](C)[C@H]12 [Meropenem]
[1]; [14]
  MIC: 0.5 µg/mL (≈ 1.3 µM)
[2]; MH broth (Table 4)
  PAO1 MIC: 0.25 µg/mL
[2]; [15]
  MIC: 0.25 µg/mL (≈ 0.652 µM)
[5]; [16]
  MIC: 0.5 µg/mL (≈ 1.3 µM)
[7]; FIG. 1a / FIG. 5
  accumulation in PAO1 (in words): minimal accumulation

## CN(C)c1cc(NC(=O)CNC(C)(C)C)c(O)c2c1C[C@H]1C[C@H]3[C@H](N(C)C)C(O)=C(C(N)=O)C(=O)[C@@]3(O)C(O)=C1C2=O [Tigecycline]
[1]; [14]
  MIC: 2 µg/mL (≈ 3.41 µM)
[2]; MH broth (Table 4)
  PAO1 MIC: 1 µg/mL
[2]; [15]
  MIC: 1 µg/mL (≈ 1.71 µM)
[3]
  WT EC MIC: 0.5 µg/mL
[5]; [16]
  MIC: 16 µg/mL (≈ 27.3 µM)
[6]
  PA efflux KO MIC: 0.125 µg/mL
[7]; FIG. 1a
  accumulation relative to tetracycline: accumulates to a higher extent than tetracycline
[8]
  tolC EC MIC: 0.125 µg/mL
[9]
  WT PA MIC: 1 µg/mL

## CN[C@H](CC(C)C)C(=O)N[C@H]1C(=O)N[C@@H](CC(N)=O)C(=O)N[C@H]2C(=O)N[C@H]3C(=O)N[C@H](C(=O)N[C@H](C(=O)O)c4cc(O)cc(O)c4-c4cc3ccc4O)[C@H](O)c3ccc(c(Cl)c3)Oc3cc2cc(c3O[C@@H]2O[C@H](CO)[C@@H](O)[C@H](O)[C@H]2O[C@H]2C[C@](C)(N)[C@H](O)[C@H](C)O2)Oc2ccc(cc2Cl)[C@H]1O [Vancomycin]
[1]; PA14, read-out: PA14 MIC
  MIC: > 512 µg/mL
[2]; MH broth (Table 4)
  PAO1 MIC: >512 µg/mL
[2]; PAO1, read-out: PAO1 MIC
  MIC: > 512 µg/mL
[2]; PAO1, read-out: WT MIC
  MIC: > 512 µg/mL
[4]; MIC ratio WT PAO1 / PAΔ6 (Table 2)
  Fold change: 1
[4]; efflux pump KO strain, MH or LB broth (Table 2)
  PAΔ6 MIC: >512 µg/mL
[5]; PA1280, read-out: PA1280 MIC
  MIC: > 512 µg/mL
[10]
  change of accumulation in efflux pump knockout PAΔ6 versus WT PAO1: no change in accumulation

## CC(=O)O[C@H]1C[C@@]2(C)[C@@H](C[C@@H](OC(C)=O)[C@H]3[C@@]4(C)CC[C@@H](OC(C)=O)[C@@H](C)[C@@H]4CC[C@@]32C)/C1=C(\CCC=C(C)C)C(=O)O [FA diacetate]
[11]
  MIC: > 512 µg/mL
[12]
  MIC: 64 µg/mL

## Cc1c(N2CC[C@@H]([C@H](C)N)C2)c(F)cc2c(CN)cc(=O)n(C3CC3)c12 [Compound 10]
[3]
  WT EC MIC: 1 µg/mL
[6]
  PA efflux KO MIC: 0.5 µg/mL
[8]
  tolC EC MIC: 0.06 µg/mL
[9]
  WT PA MIC: 2 µg/mL

## Gentamicin
[2]; 5 mM MgCl2/CAMH versus CAMH (Table 10)
  Fold change (MIC): 32X
[2]; CAMH (Table 10)
  MIC P. aeruginosa PAO1, CAMH: 0.25 µg/mL
[2]; P. aeruginosa PAO1
  shift in MIC on co-treatment with 5 mM MgCl2: 32 -fold
[2]; co-treatment 5 mM MgCl2 in CAMH (Table 10)
  MIC P. aeruginosa PAO1, 5 mM MgCl2/CAMH: 8
[13]
  NPN fluorescence (outer membrane permeability): dose-dependent increase

## Cc1c(N2CC[C@@H]([C@H](C)N)C2)c(F)cc2c(CO)cc(=O)n(C3CC3)c12 [Compound 11]
[3]
  WT EC MIC: 16 µg/mL
[6]
  PA efflux KO MIC: 4 µg/mL
[8]
  tolC EC MIC: 0.25 µg/mL
[9]
  WT PA MIC: 16 µg/mL

## CC(=O)NC[C@H]1CN(c2ccc(N3CCOCC3)c(F)c2)C(=O)O1 [Linezolid]
[1]; [14]
  MIC: > 512 µg/mL
[2]; MH broth (Table 4)
  PAO1 MIC: >512 µg/mL
[2]; [15]
  MIC: > 512 µg/mL
[5]; [16]
  MIC: > 512 µg/mL

## CC(=O)O[C@H]1C[C@@]2(C)[C@@H](C[C@@H](OC(C)=O)[C@H]3[C@@]4(C)CC[C@@H](OC(C)=O)[C@@H](C)[C@@H]4CC[C@@]32C)/C1=C(\CCC=C(C)C)C(=O)O/N=C(\N)CNCCCNCCCNCCCN [FA prodrug-diacetate]
[11]
  MIC: 16 µg/mL (≈ 19 µM)
[2]; PAO1, Table 9, read-out: MIC P. aeruginosa PAO1
  MIC: 32 µg/mL (≈ 38 µM)
[12]
  MIC: 16 µg/mL (≈ 19 µM)

## CO[C@@H]1[C@@H](OC(N)=O)[C@@H](O)[C@H](Oc2ccc3c(O)c(NC(=O)c4ccc(O)c(CC=C(C)C)c4)c(=O)oc3c2C)OC1(C)C [Novobiocin]
[1]; [14]
  MIC: > 512 µg/mL
[2]; MH broth (Table 4)
  PAO1 MIC: >512 µg/mL
[2]; [15]
  MIC: > 512 µg/mL
[2]; co-treatment of 8 μg/mL of PMBN, MH broth
  PAO1 + PMBN MIC: 1 µg/mL
[5]; [16]
  MIC: > 512 µg/mL
[7]; treatment with PMBN, FIG. 1b
  change of accumulation upon membrane permeabilization: significant increase in accumulation
